{"source": "ChEMBL document CHEMBL5055633", "about": "“Amphipathic Barbiturates as Mimics of Antimicrobial Peptides and the Marine Natural Products Eusynstyelamides with Activity against Multi-resistant Clinical Isolates” (J Med Chem, 2021)", "format_in_all_cases": "functional", "key": {"Staphylococcus aureus": {"system": "Staphylococcus aureus", "assay": "Antimicrobial activity against Staphylococcus aureus ATCC 9144 assessed as reduction in bacterial growth incubated for 48 hrs by microdilution susceptibility test"}, "Escherichia coli": {"system": "Escherichia coli", "assay": "Antimicrobial activity against Escherichia coli ATCC 25922 assessed as reduction in bacterial growth incubated for 48 hrs by microdilution susceptibility test"}, "[1]": {"system": "Corynebacterium glutamicum", "assay": "Antimicrobial activity against Corynebacterium glutamicum ATCC 13032 assessed as reduction in bacterial growth incubated for 48 hrs by microdilution susceptibility test"}}, "data": [{"smiles": "CN(C)[C@@H]1C(O)=C(C(N)=O)C(=O)[C@@]2(O)C(O)=C3C(=O)c4c(O)cccc4[C@@](C)(O)[C@H]3[C@H](O)[C@@H]12", "note": "[OXYTETRACYCLINE]", "values": [{"measurement": "MIC", "setting": "Staphylococcus aureus", "value": 0.65, "unit": "µg/mL"}, {"measurement": "MIC", "setting": "Escherichia coli", "value": 20, "unit": "µg/mL"}, {"measurement": "MIC", "setting": "[1]", "value": 2.5, "unit": "µg/mL"}]}]}
